This is an account of results in patent US8628938B2, “Polynucleotide encoding UDP-glucuronyl transferase” (Suntory Holdings Limited, priority 2007, dated 2014).

The subject of one series is SiUGT23. The series can be described thus: UDP-glucuronosyltransferase activity assay (HPLC) with recombinant SiUGT23. The following applies: 100 μM glycosyl acceptor substrate, 2 mM UDP-glucuronic acid, pH 7.5, 30° C., 30 minutes. It counts as biochemical, Sesamum indicum. As for the experimental part:
(§1) Standard reaction conditions are as follows. A reaction solution (2 mM UDP-glucuronic acid, 100 μM glycosyl acceptor substrate, 50 mM potassium phosphate buffer (pH 7.5), enzyme solution), 50 μl, was prepared and the enzyme solution was added to initiate the reaction at 30° C. for 30 minutes. The reaction was stopped by adding 50 μl of 0.5% TFA in CH3CN and provided for HPLC analysis. The conditions for HPLC are as follows: column, Develosil C30-UG-5 (4.6×150 mm); eluant A, 0.1% TFA/H2O; eluant B, 0.08% TFA/90% CH3CN; conditions A for elution (except for aurone, catechin, coumarine and phenylpropanoid), 0 min/5% B→18 min/100% eluant B'18.1 min/5% B→25 min/5% B; conditions B for elution (aurone, catechin, coumarine and phenylpropanoid), 0 min/5% B→20 min/50% eluant B→20.5 min/5% B→25 min/5% B; flow rate, 1 ml/min; detection wavelength: 280 and 350 nm.
cDNA containing full-length ORF of SiUGT23 derived from Sesamum indicum was amplified by a gene-specific primer set (SEQ ID NOs: 24 and 25). cDNA synthesized using total RNA extracted from sesame seeds was used as a template. SiUGT23 was incorporated into Escherichia coli expression vector as in UGT of Perilla frutescens, Scutellaria laeteviolacea v. yakusimensis and Antirrhinum majus in EXAMPLE 1 and recombinant SiUGT23 protein was expressed in the same way to assay the enzyme activity.

Another series has as its system AmUGTcg10. The series can be described thus: UDP-glucuronosyltransferase activity assay (HPLC) with recombinant AmUGTcg10. Particulars: 100 μM glycosyl acceptor substrate, 2 mM UDP-glucuronic acid, pH 7.5, 30° C., 30 minutes. It counts as biochemical, Antirrhinum majus. Here is the method: (§2) Escherichia coli BL21 (DE3) was transformed with each plasmid obtained in 4-(1) above. The transformant obtained was shake cultured overnight at 37° C. in 4 ml of LB medium (10 g/l tryptone, 5 g/l yeast extract, 1 g/l NaCl) supplemented with 50 μg/ml of ampicillin. The culture broth, 4 ml, which reached the stationary phase, was inoculated into 80 ml of the medium with the same composition, followed by shake culture at 37° C. When the cell turbidity (OD600) reached approximately 0.5, 0.4 mM IPTG (isopropyl-β-thiogalactopyranoside) in a final concentration was added to the medium, followed by shake culture at 22° C. for 20 hours. All of the subsequent procedures were performed at 4° C. The transformants cultured were centrifuged (7,000×g, 15 mins.) to collect the cells, and 2 ml/g cell of Buffer S (20 mM sodium phosphate buffer (pH 7.4), 20 mM imidazole, 0.5 M NaCl, 14 mM β-mercaptoethanol) was added to the cells for suspension. Subsequently, ultrasonication was performed (15 secs.×8) followed by centrifugation (15,000×g, 10 mins.). To the supernatant obtained, 0.12% (w/v) polyethyleneimine in a final concentration was added to […], which was then allowed to stand for 30 minutes. The mixture was centrifuged (15,000×g, 10 mins.) and the supernatant was recovered as a crude enzyme solution. The crude enzyme solution was applied to His SpinTrap (GE Healthcare), which had been equilibrated with Buffer S, and centrifuged (70×g, 30 secs.). After washing with 600 μl of Buffer S, the protein bound to the column was stepwise eluted with 600 μl each of Buffer S containing 100, 200 and 500 mM imidazole. The buffer in each fraction eluted was replaced by 20 mM potassium phosphate buffer (pH 7.5) containing 14 mM β-mercaptoethanol, using Microcon YM-30 (Amicon). […] These fractions were mixed and used for analysis.
as §1

A further series concerns PfUGT50. Put plainly: UDP-glucuronosyltransferase activity assay (HPLC) with recombinant PfUGT50. It counts as biochemical, Perilla frutescens. The following applies: 100 μM glycosyl acceptor substrate, 2 mM UDP-glucuronic acid, pH 7.5, 30° C., 30 minutes. Here is the method: as §2, §1
The test system of another series is S1UGT. The series can be described thus: UDP-glucuronosyltransferase activity assay (HPLC) with recombinant S1UGT. Type of series: biochemical, Scutellaria laeteviolacea v. yakusimensis. The following applies: 100 μM glycosyl acceptor substrate, 2 mM UDP-glucuronic acid, pH 7.5, 30° C., 30 minutes. As for the experimental part:
as §2, §1

The next series deals with Sb7GAT. Particulars: enzyme purified from Scutellaria baicalensis; Nagashima et al. 2000; cited from earlier work.
Series [1] can be described thus: Analysis of pH and temperature characteristics of the recombinant enzymes. It counts as biochemical. Particulars: for reaction optimum temperature: activity assay for 30 minutes, reaction temperature 10 to 55° C.; for activity in an acidic region: reaction pH dependency. As for the experimental part:
Temperature stability was analyzed as follows. An enzyme solution was treated at 15 to 55° C. for an hour and then cooled to 4° C. Using the sample cooled, the residual activity was determined under standard reaction conditions. After 167 mM final concentration of a buffer solution (pH 4, 4.5, 5, Acetate-NaOH; pH 5.5, 6, 6.5, 7, 7.5, NaH2PO4-NaOH; pH 8, 8.5, 9, Tris-HCl) was added to the enzyme solution, the mixture was treated at 4° C. for an hour and then 500 mM final concentration of potassium phosphate buffer (pH 7.5) was added thereto. Using the sample treated, the residual activity was determined under standard reaction conditions. The reaction was performed under standard reaction conditions where the reaction temperature was set at 10 to 55° C. to analyze the reaction temperature dependency. Reaction pH dependency was analyzed under standard reaction conditions using a buffer solution (pH 4, 4.5, 5, Acetate-NaOH; pH 5.5, 6, 6.5, 7, 7.5, NaH2PO4—NaOH; pH 8, 8.5, 9, Tris-HCl) in place of potassium phosphate buffer (pH 7.5). […] PfUGT50 was stable at 30° C. or lower (an hour, pH 7.5) and the reaction optimum temperature was 30° C. in the activity assay for 30 minutes. […] This enzyme was stable at 40° C. or lower (an hour, pH 7.5) and the reaction optimum temperature was 35° C. in the activity assay for 30 minutes. […] This enzyme was stable at 30° C. or lower (an hour, pH 7.5) and the reaction optimum temperature was 45° C. in the activity assay for 30 minutes. These properties were similar to known GT involved in plant secondary metabolism.

In the case of `O=c1cc(-c2ccc(O)cc2)oc2cc(O)cc(O)c12` [apigenin], the “relative activity to each substrate, taking the activity to scutellarein as 100%” value (“relative activity to each substrate … as 100%” for short) in the series with SiUGT23 was 7%; in the series with AmUGTcg10 it was 40%; in the series with PfUGT50 it was 44%; with S1UGT it was 3%. For the same molecule, the “action of Sb7GAT on the substrate” value with Sb7GAT was “does not act”.
As for `O=c1cc(-c2ccccc2)oc2cc(O)c(O)c(O)c12` [baicalein], the “relative activity to each substrate … as 100%” value in the series with SiUGT23 was 24%; with AmUGTcg10, 22%; with PfUGT50, 73%; in the series with S1UGT, 63%. Also, the “action of Sb7GAT on the substrate” value in the series on Sb7GAT is “acts”.
On to `O=c1cc(-c2ccc(O)c(O)c2)oc2cc(O)cc(O)c12` [luteolin], for which the “relative activity to each substrate … as 100%” value with SiUGT23 amounted to 29%; in the series with AmUGTcg10 it was 34%; in the series with PfUGT50, 41%; with S1UGT it was 0.6%. In the series on Sb7GAT, the “action of Sb7GAT on the substrate” value is listed as “does not act”.
For `O=c1c(O)c(-c2ccc(O)c(O)c2)oc2cc(O)cc(O)c12` [quercetin], the “relative activity to each substrate … as 100%” value amounted to 4% in the series with SiUGT23, 4% in the series on AmUGTcg10, 26% in the series with PfUGT50 and 1% in the series with S1UGT. Moreover, the “action of Sb7GAT on the substrate” value with Sb7GAT is “not”.

B1: PfUGT50: UDP-glucuronosyltransferase having the amino acid sequence of SEQ ID NO: 5, derived from Perilla frutescens a red-leaf variety (protein, listed as Perilla frutescens)
chain: MEGVILLYSSAEHLNSMLLLATFIAKHHPSIPITILSSADYSAAASVSTLPSITYRRLPPVAIPPDSIKNPVEAFFEIPRLQNPNLRVALEEISQKTRIRAFVIDFFCNSAFEVSTSLSIPTYFYVSTGSAGVCIFLYFPTTDETVATDIGDLRDFLEFPGSPIIHSSDLPQLTFFRRSNVFKHMLDTSKNMQKSSGILTNGFDAMEFRAKEALTNGLCVPNGPTPPVYLVGPLVAGSNAKKDHECLLWLDRQPSKSVVFLCFGRRGLFSGKQLREMAVALERSGYRFLWSVRNPPENRSPAEDPDLDELLPEGFLERTKDIGFVVKSWAPQKEVLSHDAVAGFVTHCGRSSILEALVNGKPMIGWPMYAEQRMNKVFMVDEMKVALPLEEEEDGFVTAVELEKRLRQLMESKTGRDVRHRVAEMKAAATAAMGENGSAVVALRKFIDSVTRD
As to B1, in series [1], the reaction optimum temperature was 30 °C and the “activity in an acidic region” value is reported as “little activity”.

B2: AmUGTcg10: UDP-glucuronosyltransferase having the amino acid sequence of SEQ ID NO: 13, derived from Antirrhinum majus (protein, listed as Antirrhinum majus)
chain: MEDTIVLYASAEHLNSMLLLGKLINKHHPTISVAIISTAPNAAASSVADVAAISYQQLKPATLPSDLTKNPIELFFEIPRLHNPNLLEALEELSLKSKVRAFVIDFFCNPAFEVSTSLNIPTYFYVSSGAFGLCGFLHFPTIDETVEKDIGELNDILEIPGCPPVLSSDFPKGMFFRKSNTYKHFLDTAKNMRRAKGIVVNAFDAMEFRAKEALVNNLCVPNSPTPPVFLVGPLVGASTTTKTTNEQHECLKWLDVQPDRSVIFLCFGRRGLFSADQLKEIAIGLENSGHRFLWSVRCPPSKPNSYNTDPDLDELLPEGFLSRTETRGFVIKSWAPQKEVLSHGAVGGFVTHCGRSSILEAVSFGVPMIGWPIYAEQRMNRVFMVEEMKVALQLDEVEEGFVAAVELEKRVKELMDSKNGRAVRQRVKEMKVAAEVAVEKGGSSVVALQRFVDMVVS
For B2, in series [1], the reaction optimum temperature was found to be 45 °C and the “activity in an acidic region” value is listed as “little activity”.

B3: S1UGT: UDP-glucuronosyltransferase having the amino acid sequence of SEQ ID NO: 11, derived from Scutellaria laeteviolacea v. yakusimensis (protein, listed as Scutellaria sp.)
chain: MEDTIVIYTTPEHLNTMAVLAKFISKHHPSVPIILISTAAESAAASIAAVPSITYHRLPLPEIPPSLTKDRVELFFELPRLSNPNLRLALQEISQKARIRAFVIDFFCNAAFEVSTSLSIPTFYYFSSGSPTATLVLHFQTLDETIPGDLKDLDDFVEIPGLPPIYSLDIPVALLTRQSLVYQSSVDISKNLRKSAGFLVNGFDALEFRAKEAIVNGLCVPNGPTPPVYFIGPLVGDVDAKAGGEEHECLRWLDTQPSKSVIFLCFGRRGVFSAEQLKETAVALENSGHRFLWSVRNPPEIMKNSDEPDLDELLPEGFLERTKDRGFVIKSWAPQKEVLSHDSVGGFVTHCGRSSISEGVWFGVPMIGWPVDAEQKLNRTVLVEEMQVALPMEEAEGGFVTAAELEKRVRELMESKVGKAVRQRVGELKCSARAAVTGNGSSLSDFKKFLLATRD
Consider B3, for which, in series [1], the reaction optimum temperature was 35 °C and the “activity in an acidic region” value is listed as “little activity”. Besides, in series [1] (an hour, pH 7.5, treated at 15 to 55° C.), the “temperature at which the enzyme was stable (residual activity)” value is not above 40 °C.
